Data taken from ChEMBL document CHEMBL3872274, “Synthesis and immunological evaluation of a low molecular weight saccharide with TLR-4 agonist activity” (Bioorg Med Chem, 2017).
Active and inactive are the calls of the source. No cut-off for these calls is given here.

Legend:
[1] = molecular target: T1, Toll-like receptor 4 (Mus musculus) (UniProt Q9QUK6); test: Agonist activity at TLR-4 in C57BL/6 mouse peritoneal exudate macrophages assessed as increase in IL-6 production at 1 to 5 ug/ml at 24 hrs post dose by ELISA relative to (Cyclohexyl-2-phthalimido-3,4,6-tri-O-acetyl-beta-D-glucopyranosyl)-2-O-acetyl-3-O-benzoyl-4,6-O-pyruvate-beta-D-galactopyranose
T1 sequence (whole entry): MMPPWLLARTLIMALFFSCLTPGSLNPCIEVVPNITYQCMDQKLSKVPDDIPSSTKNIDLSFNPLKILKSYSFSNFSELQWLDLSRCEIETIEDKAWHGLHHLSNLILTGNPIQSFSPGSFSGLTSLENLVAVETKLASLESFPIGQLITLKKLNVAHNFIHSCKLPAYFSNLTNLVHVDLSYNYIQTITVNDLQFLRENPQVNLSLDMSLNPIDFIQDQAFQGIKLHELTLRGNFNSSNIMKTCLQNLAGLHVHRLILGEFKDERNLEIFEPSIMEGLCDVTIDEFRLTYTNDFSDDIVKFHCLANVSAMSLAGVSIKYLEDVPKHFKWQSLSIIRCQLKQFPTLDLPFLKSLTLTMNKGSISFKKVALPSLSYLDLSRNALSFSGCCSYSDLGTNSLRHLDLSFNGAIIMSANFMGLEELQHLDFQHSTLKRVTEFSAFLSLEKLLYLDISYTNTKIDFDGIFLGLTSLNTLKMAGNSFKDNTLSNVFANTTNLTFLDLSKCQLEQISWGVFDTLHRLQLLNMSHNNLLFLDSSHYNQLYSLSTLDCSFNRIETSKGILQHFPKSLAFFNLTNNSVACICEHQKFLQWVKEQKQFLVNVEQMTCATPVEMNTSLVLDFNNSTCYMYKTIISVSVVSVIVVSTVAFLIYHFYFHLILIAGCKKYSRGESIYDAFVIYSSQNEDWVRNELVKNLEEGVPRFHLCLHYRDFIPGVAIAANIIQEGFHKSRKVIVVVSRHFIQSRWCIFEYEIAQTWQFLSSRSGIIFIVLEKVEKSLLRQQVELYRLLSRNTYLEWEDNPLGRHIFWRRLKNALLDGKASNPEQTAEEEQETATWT

[2] = molecular target: T1, Toll-like receptor 4 (Mus musculus); test: Binding affinity to TLR-4 in C57BL/6 mouse peritoneal exudate macrophages assessed as cells binding to PE conjugated anti-TLR-4 monoclonal antibody at 1 ug/ml preincubated for 4 hrs followed by antibody addition by flow cytometry (reference value: 50.8%)
[3] = molecular target: T1, Toll-like receptor 4 (Mus musculus); test: Agonist activity at TLR-4 in mouse RAW264.7 cells assessed as increase in IL-6 production at 1 to 5 ug/ml measured after 48 hrs by ELISA; assay type: cell-based
[4] = molecular target: T1, Toll-like receptor 4 (Mus musculus); test: Agonist activity at TLR-4 in C57BL/6 mouse peritoneal exudate macrophages assessed as increase in IL-6 production at 1 to 5 ug/ml measured after 48 hrs by ELISA
[5] = molecular target: T1, Toll-like receptor 4 (Mus musculus); test: Agonist activity at TLR-4 in mouse RAW264.7 cells assessed as increase in TNF-alpha production at 1 to 5 ug/ml measured within 2 hrs by ELISA; assay type: cell-based
[6] = molecular target: T1, Toll-like receptor 4 (Mus musculus); test: Agonist activity at TLR-4 in C57BL/6 mouse peritoneal exudate macrophages assessed as increase in TNF-alpha production at 1 to 5 ug/ml measured within 2 hrs by ELISA
[7] = molecular target: T1, Toll-like receptor 4 (Mus musculus); test: Agonist activity at TLR-4 in C57BL/6 mouse peritoneal exudate macrophages assessed as increase in TNF-alpha production at 1 to 5 ug/ml up to 24 hrs post dose by ELISA relative to thiophenyl-2-O-acetyl-3-O-benzoyl-4,6-O-pyruvate-[…]-D-galactopyranose
[8] = molecular target: T1, Toll-like receptor 4 (Mus musculus); test: Agonist activity at TLR4 in TLR-2 deficient C57BL/6 mouse peritoneal exudate macrophages assessed as induction of IL-6 production at 1 to 5 ug/ml measured after up to 48 hrs by ELISA
[9] = molecular target: T1, Toll-like receptor 4 (Mus musculus); test: Agonist activity at TLR-4 in TLR2 deficient C57BL/6 mouse peritoneal exudate macrophages assessed as increase in TNF-alpha production at 1 to 5 ug/ml measured after 2 to 24 hrs by ELISA
[10] = molecular target: T1, Toll-like receptor 4 (Mus musculus); test: Binding affinity to TLR-4 in C57BL/6 mouse peritoneal exudate macrophages assessed as cells binding to PE conjugated anti-TLR-4 monoclonal antibody at 5 ug/ml preincubated for 4 hrs followed by antibody addition by flow cytometry (reference value: 50.8%)
[11] = molecular target: Toll-like receptor 2 (Mus musculus) (UniProt Q9QUN7); test: Binding affinity to TLR-2 in C57BL/6 mouse peritoneal exudate macrophages assessed as cells binding to PE conjugated anti-TLR-2 monoclonal antibody at 10 ug/ml preincubated for 4 hrs followed by antibody addition by flow cytometry (reference value: 30.8%)
Chain of Toll-like receptor 2 (Mus musculus) (Q9QUN7 whole entry): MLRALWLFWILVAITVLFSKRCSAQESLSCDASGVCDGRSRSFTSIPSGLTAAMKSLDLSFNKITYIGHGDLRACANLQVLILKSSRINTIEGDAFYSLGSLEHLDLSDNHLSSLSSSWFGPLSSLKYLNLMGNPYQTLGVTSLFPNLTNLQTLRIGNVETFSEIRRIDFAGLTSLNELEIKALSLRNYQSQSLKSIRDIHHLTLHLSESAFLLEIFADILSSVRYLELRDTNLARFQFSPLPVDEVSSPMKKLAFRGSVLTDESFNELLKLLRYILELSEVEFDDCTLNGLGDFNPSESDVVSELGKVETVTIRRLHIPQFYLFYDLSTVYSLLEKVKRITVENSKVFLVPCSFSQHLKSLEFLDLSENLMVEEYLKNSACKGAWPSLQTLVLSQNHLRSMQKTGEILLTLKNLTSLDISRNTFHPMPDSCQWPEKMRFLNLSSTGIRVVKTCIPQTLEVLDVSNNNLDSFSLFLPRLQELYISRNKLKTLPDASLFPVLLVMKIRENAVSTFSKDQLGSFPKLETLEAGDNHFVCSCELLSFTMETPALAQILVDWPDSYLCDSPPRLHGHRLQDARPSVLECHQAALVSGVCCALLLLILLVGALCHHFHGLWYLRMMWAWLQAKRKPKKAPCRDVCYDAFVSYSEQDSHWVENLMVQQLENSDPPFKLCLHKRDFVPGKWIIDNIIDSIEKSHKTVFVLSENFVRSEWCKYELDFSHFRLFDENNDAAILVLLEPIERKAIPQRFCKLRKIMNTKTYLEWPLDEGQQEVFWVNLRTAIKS

[12] = molecular target: T1, Toll-like receptor 4 (Mus musculus); test: Binding affinity to TLR-4 in C57BL/6 mouse peritoneal exudate macrophages assessed as cells binding to PE conjugated anti-TLR-4 monoclonal antibody at 10 ug/ml preincubated for 4 hrs followed by antibody addition by flow cytometry (reference value: 50.8%)
[13] = Effect on adaptive immune system in mouse splenocytes assessed as polyclonal activation of T-lymphocytes; assay type: cell-based; conditions: splenocyte
[14] = Effect on adaptive immune system in mouse splenocytes assessed as polyclonal activation of B-lymphocytes; assay type: cell-based; conditions: splenocyte
[15] = molecular target: T1, Toll-like receptor 4 (Mus musculus); test: Binding affinity to TLR-4 in C57BL/6 mouse peritoneal exudate macrophages assessed as decrease in cells binding to PE conjugated anti-TLR-4 monoclonal antibody preincubated for 4 hrs followed by antibody addition by flow cytometry

Activity [1] [%]	Activity [2] [%]	Activity [3]	Activity [4]	Activity [5]	Activity [6]	Activity [7] [%]	Activity [8]	Activity [9]	Activity [10] [%]	Activity [11] [%]	Activity [12] [%]	Activity [15]	SMILES	Activity [13]	Activity [14]
50	–	–	–	–	–	–	–	–	–	–	–	–	COC(=O)C1(C)OC[C@H]2O[C@@H](Sc3ccccc3)[C@H](OC(C)=O)[C@@H](OC(=O)c3ccccc3)[C@H]2O1 (stereo partly specified)	–	–
–	45.2	Active	Active	Active	Active	50	Active	Active	37.3	33.4	24.3	Dose-dependent effect	COC(=O)C1(C)OC[C@H]2O[C@@H](OC3CCC(O[C@@H]4O[C@H](COC(C)=O)[C@@H](OC(C)=O)[C@H](OC(C)=O)[C@H]4N4C(=O)c5ccccc5C4=O)CC3)[C@H](OC(C)=O)[C@@H](OC(=O)c3ccccc3)[C@H]2O1 (stereo partly specified)	Non-Toxic	Non-Toxic
50	–	–	–	–	–	–	–	–	–	–	–	–	CCS[C@@H]1O[C@H](COC(C)=O)[C@@H](OC(C)=O)[C@H](OC(C)=O)[C@H]1N1C(=O)c2ccccc2C1=O	–	–
